According to patent US9663569B2, “Use of blocking agents of bone morphogenic protein (BMP) signalling for the treatment of neuroinflammatory and neurodegenerative diseases” (THE MEDICAL RESEARCH, INFRASTRUCTURE, AND HEALTH SERVICES …, priority 2012, dated 2017):

Test system: SJL female mice with induced RR-EAE
Assay: RR-EAE clinical score in SJL mice after systemic treatment
Format: in vivo
Protocol: The SJL/EAE mice model was chosen based on its relapsing and remitting (RR) pattern, which resembles the pattern of RR-multiple sclerosis in humans. RR-EAE was induced in SJL female mice (8 weeks old, Harlan Laboratories, Ltd. Israel) by subcutaneous immunization (designated day 0) with proteolipid protein peptide (PLP139-151, BioSight Ltd.) at a concentration of 100 μg/mouse.
In both models the peptides used for EAE induction were emulsified in an equal volume of Complete Freund's Adjuvant (CFA, DIFCO), containing 500 μg Mycobacterium tuberculosis H37RA (MT, DIFCO). In addition, the mice received two consecutive intraperitoneal injections of 300 ng Pertussis toxin (PTX, Sigma-Aldrich) in 0.2 ml PBS. The first injection was given at day 0 and a second injection was given 48 h afterwards.
Day 9 post induction of EAE was chosen for administration of anti-BMP neutralizing antibodies, in order to affect both the onset and the severity of EAE. […], emulsified in 200 μl PBS: anti-human BMP-2/4 (an antibody which recognizes both BMP-2 and BMP-4), anti-human BMP-5, and anti-human BMP-7 mAbs (all anti-BMP neutralizing monoclonal antibodies were obtained from R&D systems). Commercial anti-human BMPs were used based on the high homology (>95%) between human and mouse BMPs. […] Since the blood brain barrier (BBB) is disrupted in the EAE mice by the presence of pertussis toxin, the injected antibodies are present systemically in the blood stream but are also transmitted to the CNS through the disrupted BBB.
Mice treated with corresponding isotype controls (IgG1 and IgG2β, termed herein “IC”) (R&D systems) as well as mice treated with the vehicle PBS alone (termed herein “vehicle”) were used as negative controls (n=12 in each group).
Mice were monitored for symptoms of RR-EAE and were scored as follows: “0” for no disease; “1”, tail paralysis; “2”, hind limb weakness; “3”, hind limb paralysis; “4”, hind limb and forelimb paralysis; “5”, moribund.
[…] Animals were daily monitored for EAE symptoms and scored as described above. […]

[1] = 10 mg/kg i.p. every 12 hr for 5 days from day 9 post immunization

Structure (SMILES): c1cc(-c2cnn3cc(-c4ccc(OCCN5CCCCC5)cc4)cnc23)ccn1 [dorsomorphin, 6-[4-(2-Piperidin-1-yl-ethoxy)phenyl]-3-pyridin-4-yl-pyrazolo[1,5-a]pyrimidine]
- form of the disease during treatment [1]: very mild form of the disease
- onset of the first relapse delayed to day [1]: 16 days
- mice exhibiting the severe forms of the disease (score 2-5) (10 mg/kg i.p., day 9 to day 13, until day 16 post immunization): no mice
